These results are taken from patent US20240393292A1, “ALLERGY ANTIGEN AND EPITOPE THEREOF” (HOYU CO., LTD., priority 2019, published 2024).

The assay deals with IgE antibodies from patients. In words: Wheat epitope mapping (2): overlapping 10-amino-acid peptide fragments shifted by one amino acid.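 On Rank of partial sequence as epitope binding to IgE antibody: key = sequence deemed particularly important within the common 15-residue sequence.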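 On epitope sequence binding to IgE antibody, rank (Key/Preferably/More preferably): key of grades: preferably = shorter partial sequence still acting as epitope; more preferably = sequence improving IgE binding; key = particularly important sequence.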 Type of assay: binding, human. The procedure, abridged: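 Residual binding was banded as <30% none, 30–<50% poor, 50–<70% somewhat poor and ≥70% retained, relative to the parent overlapping sequence set to 100%. Values were chemiluminescent IgE signals from patient sera after subtracting secondary-antibody-only controls. The peptides were spot-synthesised 10-mers shifted by one amino acid.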

Where [1] appears, read: serum of patient P31 (WDEIA), sequence without X.
Setting [2] is: serum of patient P29 (WDEIA), sequence without X.
Setting [3] is: serum of patient P36 (WDEIA), sequence without X.
Where [4] appears, read: serum of patient P26 (WDEIA), sequence without X.
The mark [5] stands for this setting: serum of patient P27 (WDEIA), partial sequence.
[6] abbreviates: serum of patient P3 (WDEIA), sequence without X.
[7] abbreviates: serum of patient G7 (adult, general immediate type allergy to wheat), sequence without X.
[8] abbreviates: serum of patient P34 (WDEIA), partial sequence.

“1225 (QQPIQQQP; REGION 1..8: note = epitope) [compound 1225]”: the “Epitope sequence binding to IgE antibody, rank of the sequence” value (serum of patient P12 (WDEIA), sequence without X) is reported as “Preferably”. Turning to “1633 (YNPD; REGION 1..4: note = epitope) [compound 1633]”, under setting [1], the “Rank of partial sequence as epitope binding to IgE antibody” value (from here on “Rank of partial sequence”) is “Key”. As to “1706 (EAANFT; REGION 1..6: note = epitope) [compound 1706]”, the “Rank of partial sequence” value under setting [2] was “Key”. For the substance “2236 (IRNYRVAI; REGION 1..8: note = epitope) [compound 2236]”, where the note is “serum of patient P30 (WDEIA), sequence without X”, the “Epitope sequence binding to IgE antibody, rank of the sequence (Key/Preferably/More preferably)” value is “Preferably”. Turning to “1803 (SGKELE; REGION 1..6: note = epitope) [compound 1803]”, for the setting “serum of patient P18 (WDEIA)”, the “epitope sequence binding to IgE antibody, rank (Key/Preferably/More preferably)” value is given as “Key”. As to “2272 (GIDKRVIERF; REGION 1..10: note = epitope) [compound 2272]”, where the note is “serum of patient P8 (WDEIA), sequence without X”, the “Epitope sequence binding to IgE antibody, rank of the sequence (Key/Preferably/More preferably)” value was “Preferably”. With “2238 (LLRGIRNYRV; REGION 1..10: note = epitope) [compound 2238]”, the “Epitope sequence binding to IgE antibody, rank of the sequence (Key/Preferably/More preferably)” value under setting [1] is “Key”.

With “1254 (PIQQQP; REGION 1..6: note = epitope) [compound 1254]”, under setting [3], the “Epitope sequence binding to IgE antibody, rank of the sequence” value is “Key”. For “1255 (PQQPPC; REGION 1..6: note = epitope) [compound 1255]”, the “Epitope sequence binding to IgE antibody, rank of the sequence” value under setting [3] is recorded as “Preferably”. With “2659 (EAAEMNKRSF; REGION 1..10: note = epitope) [compound 2659]”, for the setting “serum of patient P35 (WDEIA), partial sequence”, the “Epitope sequence binding to IgE antibody, rank of the sequence” value is reported as “Preferably”. Turning to “1183 (QQFPPQQ; REGION 1..7: note = epitope) [compound 1183]”, the “Epitope sequence binding to IgE antibody, rank of the sequence” value (serum of patient P14 (WDEIA), sequence without X) is recorded as “Key”. For the substance “1762 (KEVSSYLKK; REGION 1..9: note = epitope) [compound 1762]”, the “epitope sequence binding to IgE antibody, rank (Key/Preferably/More preferably)” value (serum of patient P27 (WDEIA)) is on record as “Key”. Take “1242 (PQQPPC; REGION 1..6: note = epitope) [compound 1242]”: under setting [4], the “Epitope sequence binding to IgE antibody, rank of the sequence” value was “Preferably”.

For the substance “2725 (YKIGG; REGION 1..5: note = epitope) [compound 2725]”, the “Epitope sequence binding to IgE antibody, rank of the sequence” value under setting [5] was “Preferably”.

“1441 (YLQPQQPISQ; REGION 1..10: note = epitope) [compound 1441]”: the “Rank of partial sequence” value (serum of patient P18 (WDEIA), sequence without X) is given as “Preferably”. In the case of “2270 (DKRVIERFEK; REGION 1..10: note = epitope) [compound 2270]”, the “Epitope sequence binding to IgE antibody, rank of the sequence (Key/Preferably/More preferably)” value (serum of patient P7 (WDEIA), sequence without X) was “Key”. Take “2685 (YKGPTL; REGION 1..6: note = epitope) [compound 2685]”: the “Epitope sequence binding to IgE antibody, rank of the sequence” value under setting [5] is given as “Preferably”. Regarding “2647 (KEAAEM; REGION 1..6: note = epitope) [compound 2647]”, the “Epitope sequence binding to IgE antibody, rank of the sequence” value (serum of patient P26 (WDEIA), partial sequence) is on record as “Key”. As to “1506 (YLQPQQP; REGION 1..7: note = epitope) [compound 1506]”, the “Rank of partial sequence” value (serum of patient G9 (adult, general immediate type allergy to wheat), sequence without X) is “Preferably”. Consider “1208 (QQFPPQQ; REGION 1..7: note = epitope) [compound 1208]”, for which the “Epitope sequence binding to IgE antibody, rank of the sequence” value (serum of patient P35 (WDEIA), sequence without X) is listed as “Key”.

As to “2436 (WSGKTE; REGION 1..6: note = epitope) [compound 2436]”, under setting [4], the “Epitope sequence binding to IgE antibody, rank of the sequence (Key/Preferably/More preferably)” value is listed as “Key”. On to “1775 (LKKVGYN; REGION 1..7: note = epitope) [compound 1775]”, for which the “epitope sequence binding to IgE antibody, rank (Key/Preferably/More preferably)” value (serum of patient P55 (child, general immediate type allergy to wheat)) is “Key”. In the case of “2390 (VTEIV; REGION 1..5: note = epitope) [compound 2390]”, the “Epitope sequence binding to IgE antibody, rank of the sequence (Key/Preferably/More preferably)” value (serum of patient P33 (WDEIA), sequence without X) is recorded as “Key”.

On to “1961 (QQQQFPGQQ; REGION 1..9: note = epitope) [compound 1961]”, for which the “epitope sequence binding to IgE antibody, rank (Key/Preferably/More preferably)” value (serum of patient P32 (WDEIA)) is reported as “Preferably”. Regarding “1371 (QPLPPQQQP; REGION 1..9: note = epitope) [compound 1371]”, the “Epitope sequence binding to IgE antibody, rank of the sequence” value (serum of patient P4 (WDEIA), sequence without X) was “Preferably”. For the substance “1882 (TVRTLQRT; REGION 1..8: note = epitope) [compound 1882]”, where the note is “serum of patient P34 (WDEIA)”, the “epitope sequence binding to IgE antibody, rank (Key/Preferably/More preferably)” value was “Preferably”. As to “1305 (NRRALR; REGION 1..6: note = epitope) [compound 1305]”, under setting [6], the “Epitope sequence binding to IgE antibody, rank of the sequence” value is on record as “Key”. As to “2742 (YKIGGIGTVP; REGION 1..10: note = epitope) [compound 2742]”, the “Epitope sequence binding to IgE antibody, rank of the sequence” value (serum of patient P33 (WDEIA), partial sequence) is on record as “Preferably”. For “1562 (QVPLVQQQQF; REGION 1..10: note = epitope) [compound 1562]”, the “Rank of partial sequence” value under setting [7] was “More preferably”. Regarding “1844 (TVRTLQ; REGION 1..6: note = epitope) [compound 1844]”, for the setting “serum of patient P9 (WDEIA)”, the “epitope sequence binding to IgE antibody, rank (Key/Preferably/More preferably)” value is “Key”.

As to “1925 (QFPGQQ; REGION 1..6: note = epitope) [compound 1925]”, under “serum of patient P13 (WDEIA)”, the “epitope sequence binding to IgE antibody, rank (Key/Preferably/More preferably)” value is “Key”.

Regarding “2623 (SAKPLL; REGION 1..6: note = epitope) [compound 2623]”, under “serum of patient G3 (adult, general immediate type allergy to wheat), partial sequence”, the “Epitope sequence binding to IgE antibody, rank of the sequence” value is reported as “Preferably”. On to “1304 (NVEN; REGION 1..4: note = epitope) [compound 1304]”, for which the “Epitope sequence binding to IgE antibody, rank of the sequence” value under setting [6] was “Key”. Turning to “2599 (QLVQQLCC; REGION 1..8: note = epitope) [compound 2599]”, the “Epitope sequence binding to IgE antibody, rank of the sequence” value (serum of patient P53 (child, general immediate type allergy to wheat), partial sequence) is reported as “Preferably”. “2487 (KAWSGK; REGION 1..6: note = epitope) [compound 2487]”: the “Epitope sequence binding to IgE antibody, rank of the sequence (Key/Preferably/More preferably)” value under setting [7] is reported as “More preferably”. For “2239 (NYRVAI; REGION 1..6: note = epitope) [compound 2239]”, the “Epitope sequence binding to IgE antibody, rank of the sequence (Key/Preferably/More preferably)” value under setting [1] is on record as “Key”. For the substance “2710 (YKIGG; REGION 1..5: note = epitope) [compound 2710]”, the “Epitope sequence binding to IgE antibody, rank of the sequence” value (serum of patient P16 (WDEIA), partial sequence) is reported as “Key”. As to “1356 (INVEN; REGION 1..5: note = epitope) [compound 1356]”, the “Epitope sequence binding to IgE antibody, rank of the sequence” value under setting [3] is on record as “Preferably”. On to “1735 (EAANFT; REGION 1..6: note = epitope) [compound 1735]”, for which, where the note is “serum of patient P56 (child, general immediate type allergy to wheat)”, the “epitope sequence binding to IgE antibody, rank (Key/Preferably/More preferably)” value is recorded as “Key”.

For the substance “2555 (QSTYQLVQQL; REGION 1..10: note = epitope) [compound 2555]”, the “Epitope sequence binding to IgE antibody, rank of the sequence” value (serum of patient P20 (WDEIA), partial sequence) is given as “Key”.

Take “1710 (KEAANFTS; REGION 1..8: note = epitope) [compound 1710]”: where the note is “serum of patient P34 (WDEIA)”, the “epitope sequence binding to IgE antibody, rank (Key/Preferably/More preferably)” value is on record as “More preferably”. As for “2303 (LGGIDK; REGION 1..6: note = epitope) [compound 2303]”, the “Epitope sequence binding to IgE antibody, rank of the sequence (Key/Preferably/More preferably)” value under setting [7] is recorded as “Key”.

Turning to “1568 (PFPQTQ; REGION 1..6: note = epitope) [compound 1568]”, under setting [6], the “Rank of partial sequence” value is on record as “Key”. Regarding “2587 (QLVQQLCC; REGION 1..8: note = epitope) [compound 2587]”, the “Epitope sequence binding to IgE antibody, rank of the sequence” value (serum of patient P32 (WDEIA), partial sequence) is “Preferably”. With “2502 (SSQVSFQPSQ; REGION 1..10: note = epitope) [compound 2502]”, the “Epitope sequence binding to IgE antibody, rank of the sequence” value (serum of patient P15 (WDEIA), partial sequence) was “Preferably”. Turning to “1786 (KEVSSYLKK; REGION 1..9: note = epitope) [compound 1786]”, the “epitope sequence binding to IgE antibody, rank (Key/Preferably/More preferably)” value (serum of patient G9 (adult, general immediate type allergy to wheat)) is listed as “Preferably”. As for “2590 (QLVQQLCC; REGION 1..8: note = epitope) [compound 2590]”, under setting [8], the “Epitope sequence binding to IgE antibody, rank of the sequence” value is on record as “Preferably”. “2682 (YKGPTL; REGION 1..6: note = epitope) [compound 2682]”: the “Epitope sequence binding to IgE antibody, rank of the sequence” value (serum of patient P22 (WDEIA), partial sequence) was “Preferably”.

For “1916 (QQQQFPGQQQ; REGION 1..10: note = epitope) [compound 1916]”, the “epitope sequence binding to IgE antibody, rank (Key/Preferably/More preferably)” value (serum of patient P9 (WDEIA)) is recorded as “Key”. As for “1928 (VPLVQQQ; REGION 1..7: note = epitope) [compound 1928]”, the “epitope sequence binding to IgE antibody, rank (Key/Preferably/More preferably)” value (serum of patient P15 (WDEIA)) was “Key”. Consider “1707 (SQVIIM; REGION 1..6: note = epitope) [compound 1707]”, for which, under setting [2], the “Rank of partial sequence” value is reported as “Key”.

As to “2746 (KIGGI; REGION 1..5: note = epitope) [compound 2746]”, the “Epitope sequence binding to IgE antibody, rank of the sequence” value under setting [8] was “Key”. Regarding “2367 (VTEIV; REGION 1..5: note = epitope) [compound 2367]”, the “Epitope sequence binding to IgE antibody, rank of the sequence (Key/Preferably/More preferably)” value (serum of patient P24 (WDEIA), sequence without X) was “Preferably”. With “2266 (GGIDKRV; REGION 1..7: note = epitope) [compound 2266]”, the “Epitope sequence binding to IgE antibody, rank of the sequence (Key/Preferably/More preferably)” value (serum of patient P5 (WDEIA), sequence without X) is listed as “Key”.
